The values that follow come from PMC2576352, “The V1-V3 region of a brain-derived HIV-1 envelope glycoprotein determines macrophage tropism, low CD4 dependence, increased fusogenicity and altered sensitivity to entry inhibitors” (Retrovirology, 2008).

Peptide text beside a SMILES is read from it.

Assay [1] relates to BS chimeric Env (brain gp120-spleen gp41) pseudotype. It counts as cell-based, HIV-1. The conditions noted are these: HOS-CD4-CCR5 cells, inhibitor + virus 5–6 h at 37°C, luciferase at 2–3 days, non-linear regression, 95% confidence limits in parentheses. How it is done: (§1) To produce Env-pseudotyped, luciferase-reporter viruses, 293T cells were co-transfected using calcium phosphate precipitation (ProFection Mammalian Transfection System, Promega, Madison, WI) with each Env expression vector and with the Env-deficient, pNL4-3-luc^+env^- provirus, developed by N. Landau by introducing a frameshift mutation in the env gene of pNL4-3-luc^+ [87]. Culture supernatants containing the pseudotyped particles were collected 48–72 hours after transfection, clarified by centrifugation, aliquoted and stored at -80°C until use. Pseudotype particles lacking envelope glycoproteins, which are generated by co-transfecting the luciferase HIV-1 pro-viral backbone with an empty expression vector, are used as negative control for all pseudotype infections. Pseudotype stocks were quantitated using a p24^gag antigen capture ELISA (SAIC-National Cancer Institute) and normalized amounts of stocks were used to infect target cells for 5–6 hours at 37°C. At 2–3 days post-infection, the cells were washed with PBS and lysed, and the amount of entry mediated by each Env was measured by detecting luciferase activity (Luciferase Assay System, Promega) in a microplate luminometer (GloMax, Promega), following manufacturer's instructions. Results are obtained as relative light units (RLU) per second. At least three independent experiments were performed for each analysis described below, with 2–8 replicates within each experiment.
(§2) To test for sensitivity to fusion inhibitors, BMS-378806 and HNG-105, the medium from HOS-CD4-CCR5 cells plated in 96-well plates 24 hours before infection, was removed and replaced by fresh medium containing 2× the final concentration of the corresponding inhibitor, and immediately the same volume of viral stocks was added. After 5–6 hours at 37°C, inocula and inhibitors were removed and the cells were incubated for 2–3 days before evaluating the amount of infection.
(§3) Inhibition curves obtained by plotting the relative infection (expressed as a percent of untreated) versus the concentration of the inhibitor were analyzed by non-linear regression with a sigmoidal dose-response model (variable slopes) using GraphPad Prism software, version 4.02 (GraphPad Software, San Diego, CA); this analysis uses a four parameter logistic equation, Y = Bottom + (Top-Bottom)/( 1+10^((log10IC50−X)⋅Slope) ) where Y is the response, Bottom is 0 and Top is 100, X is the logarithm of the concentration, and Slope is the slope of the curve. 50% inhibitory concentrations (IC50) and 95% confidence intervals were estimated from the non-linear regression analysis. Fusogenicity data were analyzed by non-linear regression with a one-phase exponential model (using GraphPad Prism) that uses the equation Y=Ymax(1-e^(-kX)), where Ymax is the maximum response and k is the observed rate. CD4 dependence data were analyzed with SPSS, version 16, using the non-parametric Mann-Whitney test.

A further assay relates to BaL Env pseudotype. It counts as cell-based, HIV-1. The conditions noted are these: HOS-CD4-CCR5 cells, inhibitor + virus 5–6 h at 37°C, luciferase at 2–3 days, non-linear regression, 95% confidence limits in parentheses. How it is done:
as §1, §2, §3

Assay [2] relates to Br (brain-derived) Env pseudotype. It counts as cell-based, HIV-1. The conditions noted are these: HOS-CD4-CCR5 cells, inhibitor + virus 5–6 h at 37°C, luciferase at 2–3 days, non-linear regression, 95% confidence limits in parentheses. Here is the method:
as §1, §2, §3

The subject of assay [3] is Br(N283T) mutant Env pseudotype. It counts as cell-based, HIV-1. The conditions noted are these: HOS-CD4-CCR5 cells, inhibitor + virus 5–6 h at 37°C, luciferase at 2–3 days, non-linear regression, 95% confidence limits in parentheses. How it is done:
as §1, §2, §3

Assay [4] has as its system Bv1v2 chimeric Env pseudotype. It is filed as cell-based, HIV-1. The conditions noted are these: HOS-CD4-CCR5 cells, inhibitor + virus 5–6 h at 37°C, luciferase at 2–3 days, non-linear regression, 95% confidence limits in parentheses. Here is the method:
as §1, §2, §3

Assay [5] concerns Bv1v3 chimeric Env pseudotype. It is filed as cell-based, HIV-1. The conditions noted are these: HOS-CD4-CCR5 cells, inhibitor + virus 5–6 h at 37°C, luciferase at 2–3 days, non-linear regression, 95% confidence limits in parentheses. Here is the method: as §1, §2, §3
The next assay has as its system DS17 Env pseudotype. It counts as cell-based, HIV-1. The conditions noted are these: HOS-CD4-CCR5 cells, inhibitor + virus 5–6 h at 37°C, luciferase at 2–3 days, non-linear regression, 95% confidence limits in parentheses. How it is done:
as §1, §2, §3

The subject of assay [6] is DS17(N283T) mutant Env pseudotype. It is filed as cell-based, HIV-1. The conditions noted are these: HOS-CD4-CCR5 cells, inhibitor + virus 5–6 h at 37°C, luciferase at 2–3 days, non-linear regression, 95% confidence limits in parentheses. Here is the method: as §1, §2, §3
In assay [7] the test system is SB chimeric Env (spleen gp120-brain gp41) pseudotype. It is filed as cell-based, HIV-1. The conditions noted are these: HOS-CD4-CCR5 cells, inhibitor + virus 5–6 h at 37°C, luciferase at 2–3 days, non-linear regression, 95% confidence limits in parentheses. How it is done:
as §1, §2, §3

Assay [8] has as its system Spl (spleen-derived) Env pseudotype. It counts as cell-based, HIV-1. The conditions noted are these: HOS-CD4-CCR5 cells, inhibitor + virus 5–6 h at 37°C, luciferase at 2–3 days, non-linear regression, 95% confidence limits in parentheses. Here is the method:
as §1, §2, §3

In assay [9] the test system is Sv1v3 chimeric Env pseudotype. The assay is described as follows: Inhibition of pseudotype infection by entry/fusion inhibitors, Sv1v3 Env. It is filed as cell-based, HIV-1. The conditions noted are these: HOS-CD4-CCR5 cells, inhibitor + virus 5–6 h at 37°C, luciferase at 2–3 days, non-linear regression, 95% confidence limits in parentheses. How it is done:
as §1, with “At least three independent experiments were performed for each analysis described below, with 2–8 replicates within each experiment.” left out

Assay [10] relates to Sv1v2 chimeric Env pseudotype. The assay is described as follows: Inhibition of pseudotype infection by entry/fusion inhibitors, Sv1v2 Env. It counts as cell-based, HIV-1. The conditions noted are these: HOS-CD4-CCR5 cells, inhibitor + virus 5–6 h at 37°C, luciferase at 2–3 days, non-linear regression, 95% confidence limits in parentheses. How it is done:
as §1, with “At least three independent experiments were performed for each analysis described below, with 2–8 replicates within each experiment.” left out

Assay [11] concerns Spl(T283N) mutant Env pseudotype. The assay is described as follows: Inhibition of pseudotype infection by entry/fusion inhibitors, Spl(T283N) Env. It counts as cell-based, HIV-1. The conditions noted are these: HOS-CD4-CCR5 cells, inhibitor + virus 5–6 h at 37°C, luciferase at 2–3 days, non-linear regression, 95% confidence limits in parentheses. How it is done:
as §1, with “At least three independent experiments were performed for each analysis described below, with 2–8 replicates within each experiment.” left out

A further assay concerns HxB Env pseudotype. The assay is described as follows: Inhibition of pseudotype infection by entry/fusion inhibitors, HxB Env. It is filed as cell-based, HIV-1. The conditions noted are these: inhibitor + virus 5–6 h at 37°C, luciferase at 2–3 days, non-linear regression, 95% confidence limits in parentheses. Here is the method:
as §1, with “At least three independent experiments were performed for each analysis described below, with 2–8 replicates within each experiment.” left out

In assay [12] the test system is pseudotypes containing wild-type, chimeric and mutant Env. The assay is described as follows: Inhibition of pseudotype infection by entry/fusion inhibitors, Env panel. It counts as cell-based, HIV-1. Here is the method:
as §1, with “At least three independent experiments were performed for each analysis described below, with 2–8 replicates within each experiment.” left out
as §3, with “50% inhibitory concentrations (IC50) and 95% confidence intervals were estimated from the non-linear regression analysis.” left out, “CD4 dependence data were analyzed with SPSS, version 16, using the non-parametric Mann-Whitney test.” left out

The subject of the next assay is macrophage-tropic Env. The conditions noted are these: Peters et al.; cited from earlier work. An excerpt: Therefore, low CD4 dependence seems to correlate not only with fusogenicity and with the sensitivity to fusion and other entry inhibitors, but also with the macrophage tropism of Env. This is in agreement with recent work by Thomas et al. reporting that Env conferring macrophage tropism display low CD4 dependence and higher efficiency of fusion.

Usually IC50 stands for the concentration that gives 50% inhibition. Regarding `COc1ccnc2[nH]cc(C(=O)C(=O)N3CCN(C(=O)c4ccccc4)C[C@H]3C)c12` [BMS-378806], the IC50 came out at 20 nM in [1]; 29 nM in the assay on BaL Env pseudotype; 15 nM in assay [2]; 13 nM in assay [3]; 4.8 nM in assay [4]; 8.2 nM in assay [5]. In addition, the IC50 in the assay on DS17 Env pseudotype was found to be 41 nM; in assay [6], 32 nM; in [7], 2 nM; in assay [8] it was 1.8 nM; in assay [9] it was 0.9 nM; in [10], 1.2 nM. Besides, the figures for the IC50 (in assay [11]; with HxB Env pseudotype) were 0.9 nM and 3.9 nM, respectively. Moreover, the “sensitivity of pseudotypes to inhibitor” value in assay [12] (BR, BR(N283T), BS and Bv1v3 Env vs SPL, SPL(T283N), SB, Sv1v3 or Sv1v2) was “significantly less sensitive to inhibition by BMS-378806”; in assay [12] (DS17 and DS17(N283T) Env vs BR and Env with related phenotype) it was “reduced sensitivity to BMS-378806 as compared to the BR”. The “relation of inhibitor sensitivity to macrophage tropism” value in the assay on macrophage-tropic Env is listed as “correlated with increasing macrophage tropism”.
Turning to `CC[C@H](C)[C@H](NC(=O)[C@H](CCC(N)=O)NC(=O)[C@H](C)NC(=O)[C@H](CCC(N)=O)NC(=O)[C@H](CCC(=O)O)NC(=O)[C@H](CC(C)C)NC(=O)[C@H](CC(C)C)NC(=O)[C@H](C)NC(=O)[C@@H](NC(=O)[C@@H](NC(=O)[C@H](CCCCN)NC(=O)[C@H](CCC(N)=O)NC(=O)[C@H](CCC(=O)O)NC(=O)[C@H](Cc1c[nH]c2ccccc12)NC(=O)[C@H](CCC(=O)O)NC(=O)[C@H](CCC(N)=O)NC(=O)[C@@H](N)Cc1c[nH]c2ccccc12)[C@@H](C)CC)[C@@H](C)O)C(=O)N[C@@H](CCC(N)=O)C(=O)N[C@@H](CCC(N)=O)C(=O)N[C@@H](CCC(=O)O)C(=O)N[C@@H](CCSC)C(=O)N[C@@H](CC(N)=O)C(=O)N[C@@H](CCC(=O)O)C(=O)N[C@@H](CCC(N)=O)C(=O)N[C@@H](CCC(=O)O)C(=O)N[C@@H](CC(C)C)C(=O)N[C@@H](CCC(N)=O)C(=O)N[C@@H](CCCCN)C(=O)N[C@@H](CC(C)C)C(=O)N[C@@H](CC(=O)O)C(=O)N[C@H](C(=O)N[C@@H](Cc1c[nH]c2ccccc12)C(=O)N[C@@H](C)C(=O)N[C@@H](CO)C(=O)N[C@@H](CC(C)C)C(=O)N[C@@H](Cc1c[nH]c2ccccc12)C(=O)N[C@@H](CCC(=O)O)C(=O)N[C@@H](Cc1c[nH]c2ccccc12)C(=O)N[C@@H](Cc1ccccc1)C(=O)O)[C@@H](C)O` [T-1249-BR] (H-WQEWEQKITALLEQAQIQQEMNEQELQKLDTWASLWEWF-OH), the IC50 in assay [1] was found to be 155 nM; in the assay on BaL Env pseudotype, 124 nM; in [2] it was 195 nM; in assay [3] it was 221 nM; in [4], 155 nM; in assay [5], 245 nM. Besides, the concentration for half-maximal inhibition (IC50) with DS17 Env pseudotype was determined as 92 nM; in assay [6], 104 nM; in assay [7] it was 41 nM; in [8], 27 nM.
Regarding `CC[C@H](C)[C@H](NC(=O)[C@H](CCC(N)=O)NC(=O)[C@H](C)NC(=O)[C@H](CCC(N)=O)NC(=O)[C@H](CCC(=O)O)NC(=O)[C@H](CC(C)C)NC(=O)[C@H](CC(C)C)NC(=O)[C@H](C)NC(=O)[C@@H](NC(=O)[C@@H](NC(=O)[C@H](CCCCN)NC(=O)[C@H](CCC(N)=O)NC(=O)[C@H](CCC(=O)O)NC(=O)[C@H](Cc1c[nH]c2ccccc12)NC(=O)[C@H](CCC(=O)O)NC(=O)[C@H](CCC(N)=O)NC(=O)[C@@H](N)Cc1c[nH]c2ccccc12)[C@@H](C)CC)[C@@H](C)O)C(=O)N[C@@H](CCC(N)=O)C(=O)N[C@@H](CCC(N)=O)C(=O)N[C@@H](CCC(=O)O)C(=O)N[C@@H](CCCCN)C(=O)N[C@@H](CC(N)=O)C(=O)N[C@@H](CCC(=O)O)C(=O)N[C@@H](Cc1ccc(O)cc1)C(=O)N[C@@H](CCC(=O)O)C(=O)N[C@@H](CC(C)C)C(=O)N[C@@H](CCC(N)=O)C(=O)N[C@@H](CCCCN)C(=O)N[C@@H](CC(C)C)C(=O)N[C@@H](CC(=O)O)C(=O)N[C@@H](CCCCN)C(=O)N[C@@H](Cc1c[nH]c2ccccc12)C(=O)N[C@@H](C)C(=O)N[C@@H](CO)C(=O)N[C@@H](CC(C)C)C(=O)N[C@@H](Cc1c[nH]c2ccccc12)C(=O)N[C@@H](CCC(=O)O)C(=O)N[C@@H](Cc1c[nH]c2ccccc12)C(=O)N[C@@H](Cc1ccccc1)C(=O)O` [T-1249], the IC50 in assay [1] was 140 nM; in the assay with BaL Env pseudotype it was 102 nM; in [2] it was 173 nM; in assay [3] it was 166 nM; in [4], 224 nM; in assay [5], 227 nM. Besides, the IC50 in the assay with DS17 Env pseudotype is 210 nM; in [6], 155 nM; in [7], 83 nM; in [8] it was 37 nM.
